From patent US8865741B2, “Aminoindane compounds and use thereof in treating pain” (Asana Biosciences, LLC, priority 2011, dated 2014)
Where two headings read alike, the source gives them in different places.

Key:
[1] = system: sodium channel in hTRPV1-N1E115 cells; assay: FLIPR membrane potential assay of sodium channel response in hTRPV1-N1E115 cells, with (47° C.) or without (25° C.) heat activation of hTRPV1; assay type: cell-based; details: for hTRPV1-N1E Nav (% inhibition) 25° C., tested at 0.5 mM / hTRPV1-N1E Nav (% inhibition) 47° C., tested at 0.5 mM: 0.5 mM (stated in cell, column head 0.1 mM); for hTRPV1-N1E Nav 1 mM (% inhibition) 25° C. / hTRPV1-N1E Nav 0.1 mM (% inhibition) 25° C.: 25° C. (no heat activation of hTRPV1); for hTRPV1-N1E Nav (% inhibition) 47° C., tested at 0.5 mM / IC50: 47° C.; for IC50: read-out: hTRPV1-N1E IC50 (μM) 47° C.
Method in brief: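 hTRPV1-N1E115 cells were loaded with membrane potential blue dye, and compound was added. Duplicate plates were either heated to 47 °C for 10 min then held 30 min at ~25 °C, or kept 40 min at room temperature. Activity was attenuation of the FLIPR Tetra signal induced by 100 μM veratridine (final).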

[2] = system: Male Sprague Dawley (SD) rats; assay: In vivo assay of mechanical nociception (rat pinch model, perisciatic injection); details: for Average Time of Analgesia: perisciatic
[3] = molecular target: T1, human Nav1.5 sodium channel (Homo sapiens, UniProt Q14524); assay: Inhibition of sodium channel response in hNav1.5-HEK293 cells (FLIPR, veratridine); assay type: cell-based; details: for IC50: average, read-out: HEK Nav 1.5 IC50 (μM) (AVG); for inhibition at 10 min, 0.5 mM / inhibition at 10 min, 1.5 mM: human, HEK-293 cells expressing human Nav1.5 (hNav1.5-HEK-293), pH 7.4; for inhibition at 10 min, 0.5 mM: read-out: HEK Nav 1.5 % inh. @ 0.5 mM; for inhibition at 10 min, 1.5 mM: read-out: HEK Nav 1.5 % inh. @ 1.5 mM
T1 construct: host or cells: HEK-293
Method: C. Method for Assessing the Extent of Inhibition of Sodium Channel Response with Compounds in hNav1.5-HEK293 Cells.
The following assay was used to assess the tendency of the test compounds to block the dominant cardiac sodium channel isoform. Nav1.5 sodium channels are known to be permeable to quaternary sodium channel blockers such as QX-314 and, thus, the assay was performed in the absence of a chemical TRPV1 agonist.
The hNav1.5-HEK-293 cells (CreaCell, France, a human embryonic kidney cell line expressing the human Nav1.5 sodium channel) were cultured in Growth medium (containing 1×DMEM (Gibco)+10% FBS (PAA Gold)+2% Glutamine 100 mM (Gibco)+1% penicillin 10,000 U/mL streptomycin 10,000 μg/mL (Invitrogen)+1.2 mg/mL Geneticin G418 (Invitrogen)) in […] cell bind flasks (Corning). The following steps were followed exactly as mentioned. The spent medium was discarded and the cells rinsed once with PBS-1×. Accutase® (1-2 mL; PAA) solution was added. The plate was placed on a 37° C. warming incubator 3-5 minutes. As soon as cells are detached, 37° C. complete medium (9 mL) was added. The cell suspension was drawn into a sterile pipette and cells homogenized gently to dissociate cell aggregates. The cells were counted using a hemocytometer with Blue Trypan and then centrifuged 5 minutes at 400 g. The cells can be amplified or maintained by seeding […] in a T75 flask (final volume: 15 mL). 8000 cells in 50 μL Growth medium was added to each well of 384-well, clear bottomed, sterile poly-D-lysine coated plates with lid (Greiner-bio one) inside the laminar air-flow. The plates were incubated at 37° C. and 5% CO2 in a CO2 incubator (Thermo) for 48 hours.
On the day of the assay, cells were washed with Assay buffer, which was prepared using the components and amounts in Table 4. The pH was adjusted to 7.4 with NaOH, volume made up to 500 mL with Milli-Q® water.
Assay Buffer was added to the cells and incubated at rt (25° C.) for 10 minutes. The compounds were diluted in assay buffer. The compounds were added and incubated at rt (25° C.) for 10 minutes. Red FMP Dye (MDC) was added to the cells and the plate was incubated at rt (25° C.) for 30 minutes. Veratridine stock (20 mM; Sigma) was prepared in DMSO; veratridine (final concentration of 30 μM) in assay buffer was added to each well of the cell seeded plates in the FLIPR® system and read taken for 10 minutes. Table 5 provides data illustrating the sodium channel activity of the test compounds in response to the presence or absence of heat stimulation in cells expressing hTRPV1. The compounds were tested for differential activity at 25° C. and 47° C. and at two test concentrations. Compounds showing the most promising profiles were further evaluated for IC50 in the 47° C. assay, examples are shown in Table 5.

rats [4] = assay: Sciatic function assay (foot print score, motor function); assay type: in vivo, rat; details: 200 μL of 0.2% with 2% lidocaine
Description: The sciatic function test is a simple observational gait analysis that provides a rudimentary assessment of hind-limb motor function according to a predetermined scoring scale based on a visual inspection of the animals foot prints as it ambulates on a flat surface (the basic principles of this test are provided in Lowdon (Journal of Neuroscience Methods 24(3), 1988, 279-281)). Following the injection of a test substance(s), the animal's hind paws are inked and it is then placed on a flat paper surface and permitted to ambulate freely. The footprint pattern left by the inked footpads on the paper is inspected and assigned a ‘foot print score’ based on a subjective assessment. […] A footprint score of 1-3 reflected that the weight bearing was primarily on the knees, that the ankle and toes were used sparingly, the toes were curled, and or the plantar surface of the paw is uplifted in a concave fashion. A footprint score of 4-6 reflects that the weight bearing is primarily on the knees and angle, with very little weight bearing on the toes. A footprint score of 6-10 reflects that the weight bearing is distributed over the knee, ankle, and toes and that there is an occasional sparing of the knee joints.

rats [5] = assay: Cutaneous anesthetic activity, cutaneous trunci muscle reflex (CTMR) pin-prick model; assay type: in vivo, rat
Method: Rats were subjected to several days of acclimatization to the environment and the investigator prior to entering the study. About 24 hours before each experiment, the skin on the back of male rats was shaved using electronic clippers. The anesthetic action of test agents, following subcutaneous injection was determined using a “pin-prick” method as described by Khan (Khan et al., Anesthesiology, January 2002, 96(1): 109-116). Injection volumes were standardized at 100 μL, each injection caused a small wheal to develop—the boundary of which was marked with ink. The cutaneous trunci muscle reflex (CTMR) is a reflex movement of the skin due to twitches of the lateral thoracospinal muscles elicited by noxious stimulation of the dorsal cutaneous area. An 18-guage needle was used as the noxious stimulus; six stimuli were presented to an area of ‘normal’ skin to determine baseline sensitivity and this was then repeated in the area of the wheal. […] Data were represented as % maximal possible effect (MPE) where 100% indicates complete lack of response to each of the six needle presentations in the injected area. The extent of local anesthesia was assessed at regular intervals in order to generate efficacy-duration time plots.

[6] = system: sodium current in DRG neurons; details: co-applied with 1 μM capsaicin; whole-cell voltage clamp; read-out: in vitro apparent affinity (IC50) for blocking sodium current in DRG neurons; cited from earlier work
[7] = test compound 0.5%, lidocaine 0%, total injection 100 μL
[8] = test compound 0.5%, lidocaine 0%, total injection 200 μL
[9] = test compound 0.5%, lidocaine 2%, total injection 100 μL
[10] = test compound 0.5%, lidocaine 2%, total injection 200 μL
[11] = 47° C. (heat activation of hTRPV1)

T1 sequence (Q14524 whole entry): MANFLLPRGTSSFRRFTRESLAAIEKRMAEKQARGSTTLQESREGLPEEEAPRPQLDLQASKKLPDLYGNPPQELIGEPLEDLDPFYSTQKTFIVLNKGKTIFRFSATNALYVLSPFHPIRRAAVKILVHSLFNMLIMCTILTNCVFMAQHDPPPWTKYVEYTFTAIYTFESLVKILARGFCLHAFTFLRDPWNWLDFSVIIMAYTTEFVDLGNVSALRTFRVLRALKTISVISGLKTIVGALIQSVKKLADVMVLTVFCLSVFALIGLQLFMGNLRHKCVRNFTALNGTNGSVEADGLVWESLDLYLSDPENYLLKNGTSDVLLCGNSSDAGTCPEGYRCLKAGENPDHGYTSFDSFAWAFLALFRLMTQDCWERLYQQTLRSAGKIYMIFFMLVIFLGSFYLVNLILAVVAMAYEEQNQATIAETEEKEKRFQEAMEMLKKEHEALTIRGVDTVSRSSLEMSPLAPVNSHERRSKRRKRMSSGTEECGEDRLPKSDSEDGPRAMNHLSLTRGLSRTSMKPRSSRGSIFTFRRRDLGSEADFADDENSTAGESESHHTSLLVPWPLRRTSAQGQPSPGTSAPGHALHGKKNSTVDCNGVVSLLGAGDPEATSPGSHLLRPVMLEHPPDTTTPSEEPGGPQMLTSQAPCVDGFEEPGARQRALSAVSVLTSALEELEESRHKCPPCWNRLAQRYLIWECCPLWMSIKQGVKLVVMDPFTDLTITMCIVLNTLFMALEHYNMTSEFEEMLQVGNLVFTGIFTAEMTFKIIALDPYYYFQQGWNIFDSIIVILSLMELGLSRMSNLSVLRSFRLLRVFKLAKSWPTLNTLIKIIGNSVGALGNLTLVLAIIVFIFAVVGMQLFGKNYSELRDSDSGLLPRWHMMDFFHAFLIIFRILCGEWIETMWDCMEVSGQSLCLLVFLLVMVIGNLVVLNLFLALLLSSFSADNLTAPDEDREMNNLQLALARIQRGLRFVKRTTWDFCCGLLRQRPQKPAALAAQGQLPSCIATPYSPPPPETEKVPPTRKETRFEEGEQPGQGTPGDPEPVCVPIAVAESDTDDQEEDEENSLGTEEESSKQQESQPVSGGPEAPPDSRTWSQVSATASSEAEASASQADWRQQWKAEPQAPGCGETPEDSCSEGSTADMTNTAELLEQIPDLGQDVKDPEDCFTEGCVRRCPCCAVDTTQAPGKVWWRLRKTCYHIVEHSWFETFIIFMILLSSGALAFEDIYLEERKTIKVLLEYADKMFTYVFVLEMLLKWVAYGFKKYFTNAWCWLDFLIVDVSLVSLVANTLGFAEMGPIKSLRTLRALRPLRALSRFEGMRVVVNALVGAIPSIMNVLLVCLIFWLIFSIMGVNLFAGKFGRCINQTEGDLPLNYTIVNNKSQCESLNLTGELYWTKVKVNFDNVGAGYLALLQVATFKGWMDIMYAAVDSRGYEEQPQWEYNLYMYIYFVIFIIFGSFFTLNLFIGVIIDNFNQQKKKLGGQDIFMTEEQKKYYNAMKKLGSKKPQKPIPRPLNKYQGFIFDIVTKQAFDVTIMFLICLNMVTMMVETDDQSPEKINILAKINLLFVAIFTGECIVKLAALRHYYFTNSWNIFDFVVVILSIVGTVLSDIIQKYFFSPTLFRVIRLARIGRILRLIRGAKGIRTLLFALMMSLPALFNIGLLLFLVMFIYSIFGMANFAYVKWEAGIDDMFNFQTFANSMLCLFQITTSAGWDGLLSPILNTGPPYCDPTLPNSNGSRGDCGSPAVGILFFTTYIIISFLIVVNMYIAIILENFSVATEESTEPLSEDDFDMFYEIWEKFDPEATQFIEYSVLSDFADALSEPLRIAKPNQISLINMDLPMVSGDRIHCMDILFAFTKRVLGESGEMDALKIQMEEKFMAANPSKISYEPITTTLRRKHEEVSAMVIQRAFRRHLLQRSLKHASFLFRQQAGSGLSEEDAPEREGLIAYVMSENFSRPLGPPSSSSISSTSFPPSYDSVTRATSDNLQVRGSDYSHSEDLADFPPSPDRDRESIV

Row | SMILES | hTRPV1-N1E Nav (% inhibition) 25° C., tested at 0.5 mM [1] [%] | hTRPV1-N1E Nav (% inhibition) 47° C., tested at 0.5 mM [1] | hTRPV1-N1E Nav 1 mM (% inhibition) 25° C. ([1]; 1 mM) | Average Time of Analgesia [2, 7] [h] | Average Time of Analgesia [2, 8] [h] | Average Time of Analgesia [2, 9] [h] | Average Time of Analgesia [2, 10] [h] | IC50 [3] [µM] | inhibition at 10 min, 0.5 mM [3] [%] | inhibition at 10 min, 1.5 mM [3] [%] | hTRPV1-N1E Nav 0.1 mM (% inhibition) 25° C. [1] [%] | IC50 ([1]; class symbols) [µM] | further results
1 | CC[N+]1(CC)CCCC[C@H]1CCN(c1ccccc1)C1Cc2ccccc2C1.[I-] [Example 2, (S)-1,1-diethyl-2-[2-((indan-2-yl)(phenyl)amino)ethyl]piperidinium iodide] | 44 | 89 (N = 2, 0.5 mM) % | 50 (N = 2) % | 0 | 4 | 10 | >14 | 247 | 89.2 | 98.1 | – | – | IC50 ([1]; numeric values): 9 µM
2 | C[N+]1(C)CCCCC1CN(c1ccccc1)C1Cc2ccccc2C1.[I-] (centres unmarked) [Example 3, 1,1-dimethyl-2-[((indan-2-yl)(phenyl)amino)methyl]piperidinium iodide] | – | – | 23 (N = 2) % | 4 | 9 | 12 | >15 | 190 | 77.6 | 99.1 | 16 | – | hTRPV1-N1E Nav 0.1 mM (% inhibition) 47° C. [1, 11]: 67 (N = 2) %; hTRPV1-N1E Nav 1 mM (% inhibition) 47° C. ([1]; 1 mM, 47° C. (heat activation of hTRPV1)): 60 (N = 2) %; IC50 ([1]; numeric values): 37 µM; analgesic effects in the absence of lidocaine ([2]; absence of lidocaine): analgesic effects of significant duration
3 | C[N+]1(C)CCCC[C@H]1CCN(c1ccccc1)C1Cc2ccccc2C1.[I-] [Example 9, (S)-1,1-Dimethyl-2-[2-((indan-2-yl)(phenyl)amino)ethyl]piperidinium iodide] | 16 | 77 (N = 2, 0.5 mM) % | – | – | – | 5 | – | 647 | 72.4 | 97.2 | – | 10 to 100 | –
4 | C[N+]1(C)CCCC[C@@H]1CCN(c1ccccc1)C1Cc2ccccc2C1.[I-] [Example 10, (R)-1,1-Dimethyl-2-[2-((indan-2-yl)(phenyl)amino)ethyl]piperidinium iodide] | 24 | 91 (N = 2, 0.5 mM) % | 6.5 (N = 2) % | – | – | – | – | 667 | 76.1 | 97.6 | – | 10 to 100 | –
5 | CC[N+]1(CC)CCCC[C@@H]1CCN(c1ccccc1)C1Cc2ccccc2C1.[I-] [Example 11, (R)-1,1-Diethyl-2-[2-((indan-2-yl)(phenyl)amino)ethyl]piperidinium iodide] | – | – | 71 (N = 2) % | – | – | 7 | – | 44 | 97.9 | 97.8 | 0 | 10 to 100 | hTRPV1-N1E Nav 0.1 mM (% inhibition) 47° C. [1, 11]: 72%
6 | Cc1ccccc1N(CC[C@H]1CCCC[N+]1(C)C)C1Cc2ccccc2C1.[Br-] [Example 43, (R)-2-[2-(Indan-2-yl-o-tolyl-amino)-ethyl]-1,1-dimethyl-piperidinium bromide] | – | – | – | – | – | – | – | – | – | – | 93.9 | 1 to 10 | Average Time of Analgesia ([2]; test compound 0.2%, lidocaine 2%, total injection 200 μL): 28 h; duration of marked motor deficit post injection (rats [4]; unilateral peri-sciatic injection): 2 h; time of gradual return of foot print score to normal (rats [4]; remaining hours of assessment after the first 6 hours): ~20 h; duration of analgesia, combination with lidocaine compared to compound alone (rats [5]; 100 μL sub-cutaneous injection, 0.2%, with lidocaine 2% vs alone): extended duration of analgesia
7 | CC[N+](CC)(CC)CC(=O)Nc1c(C)cccc1C [QX-314, reference compound] | – | – | – | 2 | 2 | 6 | 9 | – | – | – | – | – | IC50 [6]: 30 µM
8 | CCN(CC)CC(=O)Nc1c(C)cccc1C [lidocaine] | – | – | – | – | – | – | – | – | – | – | – | – | time of return of analgesia to baseline (rats [5]; 100 μL lidocaine (2%) alone, sub-cutaneous): around 2 hours; analgesia (% maximal possible effect) reached (rats [5]; 100 μL lidocaine (2%) alone, sub-cutaneous, for around 0.5 hours post injection): 100%
